Data reported in patent EP1276722B1, “NAPHTHAMIDINE UROKINASE INHIBITORS” (ABBOTT LABORATORIES, priority 2000, dated 2001).

Experiments:
[1] = tested on: tumor metastasis; settings: Anticancer Res. 1988, 8, 1373-1376; cited from earlier work
[2] = tested on: angiogenesis; settings: J. Cell Biol. 1991, 115[3 Pt 2], 402a; cited from earlier work
[3] = biological target: T1, urokinase enzyme Abbokinase (Homo sapiens, UniProt P00749); assay: Inhibition of urokinase on chromogenic substrate S-2444; assay type: biochemical; settings: read-out: Ki
T1 construct: purchased Abbott Laboratories, Abbott Park, IL
Experimental: Four concentrations were chosen, then 5 µl of each were diluted to a total assay volume of 200 µL. […] Several vials were reconstituted as directed on the vial, aliquoted, and stored frozen The enzyme was further diluted in assay buffer and 10 µL was used in the assay. Enzyme concentration in the assay was 2-3 nM. The assay was performed as follows: 175 µL of buffer was pipetted inta the polystyrene plate, and 5 µL solution of a compound of this invention in DMSO was added. The mixture was vortexed, treated with 10 µL of enzyme in buffer, vortexed, treated with 10 µL of substrate in water, and vortexed. […] The Spectromax® calculated the reaction rates which were used to calculate percent inhibition of the compounds of this invention versus the reaction rate of the enzyme in the absence of any inhibitor. The Ki's of the inhibitors were calculated from the percent inhibition and previously established Km.

Compound	tumor metastasis in vivo [1]	angiogenesis in vitro [2]	Ki [3] [nM]
N=C(N)NC(=O)c1nc(Cl)c(N)nc1N [Amiloride]	inhibit	inhibit	–
N=C(N)c1ccc2cc(C3CC3c3ccc4c(c3)CCNC4)ccc2c1 (centres unmarked) [Example 46, 6-(2-(1,2,3,4-tetrahydro-6-isoquinolinyl)cyclopropyl)-2-naphthalenecarboximidamide]	–	–	180
CCC1CNCc2ccc(C3CC3c3ccc4cc(C(=N)N)ccc4c3)cc21 (centres unmarked) [Example 48, 6-(2-(4-ethyl-1,2,3,4-tetrahydro-6-isoquinolinyl)cyclopropyl)-2-naphthalenecarboximidamide]	–	–	29
CCC1CN(Cc2ccccc2)Cc2ccc(C3CC3c3ccc4cc(C(=N)N)ccc4c3)cc21 (centres unmarked) [Example 49, 6-(2-(2-benzyl-4-ethyl-1,2,3,4-tetrahydro-6-isoquinolinyl)cyclopropyl)-2-naphthalenecarboximidamide]	–	–	278
CCC1CNCc2ccc(C=Cc3ccc4cc(C(=N)N)ccc4c3)cc21 (centres unmarked) [Example 50, 6-(2-(4-ethyl-1,2,3,4-tetrahydro-6-isoquinolinyl)ethenyl)-2-naphthalenecarboximidamide]	–	–	43
CCC1CN(C)Cc2ccc(C3CC3c3ccc4cc(C(=N)N)ccc4c3)cc21 (centres unmarked) [Example 51, 6-(2-(4-ethyl-2-methyl-1,2,3,4-tetrahydro-6-isoquinolinyl)cyclopropyl)-2-naphthalenecarboximidamide]	–	–	123
CCC1CN(C(C)=O)Cc2ccc(C3CC3c3ccc4cc(C(=N)N)ccc4c3)cc21 (centres unmarked) [Example 52, 6-(2-(2-acetyl-4-ethyl-1,2,3,4-tetrahydro-6-isoquinolinyl)cyclopropyl)-2-naphthalenecarboximidamide]	–	–	530
CCC1CN=C(C(C)C)c2ccc(C3CC3c3ccc4cc(C(=N)N)ccc4c3)cc21 (centres unmarked) [Example 54, 6-(2-(4-ethyl-1-isopropyl-3,4-dihydro-6-isoquinolinyl)cyclopropyl)-2-naphthalenecarboximidamide]	–	–	343
CCC1CN=C(C(C)C)c2ccc(C=Cc3ccc4cc(C(=N)N)ccc4c3)cc21 (centres unmarked) [Example 55, 6-(2-(4-ethyl-1-isopropyl-3,4-dihydro-6-isoquinolinyl)ethenyl)-2-naphthalenecarboximidamide]	–	–	255
N=C(N)c1ccc2cc(C3CC3c3ccc4c(c3)C(C3CCCCC3)=NCC4)cc(Br)c2c1 (centres unmarked) [Example 56, 8-bromo-6-(2-(1-cyclohexyl-3,4-dihydro-7-isoquinolinyl)cyclopropyl)-2-naphthalenecarboximidamide]	–	–	18
CN1CCc2ccc(C3CC3c3cc(Br)c4cc(C(=N)N)ccc4c3)cc2C1C1CCCCC1 (centres unmarked) [Example 57, 8-bromo-6-(2-(1-cyclohexyl-2-methyl-1,2,3,4-tetrahydro-7-isoquinolinyl)cyclopropyl)-2-naphthalenecarboximidamide]	–	–	25
CC(C)/C=C/c1cc(C2CC2c2ccc3c(c2)C(C2CCCCC2)=NCC3)cc2ccc(C(=N)N)cc12 (centres unmarked) [Example 58, 6-(2-(1-cyclohexyl-3,4-dihydro-7-isoquinolinyl)cyclopropyl)-8-((1E)-3-methyl-1-butenyl)-2-naphthalenecarboximidamide]	–	–	10
CC(C)/C=C/c1cc(C2CC2c2ccc3c(c2)C(C2CCCCC2)N(C)CC3)cc2ccc(C(=N)N)cc12 (centres unmarked) [Example 59, 6-(2-(1-cyclohexyl-2-methyl-1,2,3,4-tetrahydro-7-isoquinolinyl)cyclopropyl)-8-((1E)-3-methyl-1-butenyl)-2-naphthalenecarboximidamide]	–	–	10
